Reference: patent US20240208930A1, “CRYSTALLINE FORM OF SPHINGOSINE-1-PHOSPHATE RECEPTOR AGONIST” (LG CHEM, LTD., priority 2021, published 2024)
“Also recorded” adds a separate entry of the source.

Legend:
[1] = DVS (dynamic vapor sorption); type: physicochemical
Description: Moisture sorption/desorption data were collected on a DVS Intrinsic instrument (Surface Measurement Systems). Samples were not dried prior to analysis. Sorption and desorption data were collected over the range of 5% to 95% RH with 10% RH increments under nitrogen. The equilibrium criterion used in the analysis was less than 0.0100% change in weight in 5 minutes with a maximum equilibration time of 3 hours. Data on the initial moisture content of the samples were not corrected. The results are represented in FIG. 6.

[2] = Stability test (XRPD, naked eye observation, HPLC) after storage under accelerated and severe conditions; type: physicochemical
Description: To investigate the stability of Crystalline Form A, after storage for 2 weeks under accelerated (40° C./75% RH) and severe (80° C.) conditions, the physical stability was confirmed by naked eye observation and XRD measurement (FIG. 7), and chemical stability was confirmed by the analysis of the sample purity using HPLC (Table 3). HPLC equipment and analysis methods are represented in Table 1.
A stability test was carried out in the same manner as in Example 2. • (5) Results

[3] = severe condition (80° C.), 2 weeks

## CC(C)n1nc(Cl)c2cc(COc3ccc4c(c3)CCC(CN3CCC(C(=O)O)CC3)=C4Cl)ccc21 [Crystalline Form A, 1-[1-chloro-6-(3-chloro-1-isopropyl-1H-indazol-5-ylmethoxy)-3,4-dihydro-naphthalen-2-ylmethyl]-piperidine-4-carboxylic acid]
[1]
  XRPD pattern of the solid retrieved after DVS: XRPD patterns similar to the initial ones
[2]; 2 weeks, accelerated (40° C./75% RH) and severe (80° C.) conditions
  change in the crystal form in XRPD: no change in the crystal form
[2]; 2 weeks, accelerated (40° C./75% RH) and severe (sealed state, 80° C.) conditions
  physical/chemical stability: physically/chemically stable; also recorded: physical/chemical stability was confirmed

## CC(C)n1nc(Cl)c2cc(COc3ccc4c(c3)CCC(CN3CCC(C(=O)O)CC3)=C4Cl)ccc21 [amorphous form, 1-[1-chloro-6-(3-chloro-1-isopropyl-1H-indazol-5-ylmethoxy)-3,4-dihydro-naphthalen-2-ylmethyl]-piperidine-4-carboxylic acid]
[2]; 80° C.
  time physically stable: at least 2 weeks
[2]; Accelerated condition (40° C./75% RH), 1 week
  sample purity using HPLC: 98.1%
[2]; Accelerated condition (40° C./75% RH), 2 weeks
  sample purity using HPLC: 98.8%
[2]; Accelerated condition (40° C./75% RH), 3 days
  sample purity using HPLC: 98.8%
[2]; Initial
  sample purity using HPLC: 100.7%
[2]; Severe condition (80° C.), 1 week
  sample purity using HPLC: 87.2%
[2]; Severe condition (80° C.), 3 days
  sample purity using HPLC: 90.7%
[2]; after 2 weeks of severe condition (80° C.)
  naked eye observation: free-flowing particles that were broken when struck and bubble-like yellow masses
[2]; [3]
  amount of impurities in the sample: increased
  sample purity using HPLC: 77.3%
